# Where “and” joins values, the source holds several entries; their conditions need not be identical. Equal values may be shown once.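 All cell lines were grown in 96-well plates and treated with compound for 48 hours. GI50: concentration for 50% inhibition of growth. The concentration for full growth arrest is given as TGI.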
# System: MDA-MB-468 breast
# Assay: growth of human tumour cells (NCI), 48 h
Compound,GI50,TGI
COC(=O)[C@H](C)NC(=O)[C@@H](OC)[C@@H]1Cc2cc3cc(OC4CC(OC5CC(O)C(O)C(C)O5)C(O)C(C)O4)c(C)c(O)c3c(O)c2C(=O)[C@H]1OC1CC(OC2CC(OC3CC(C)(O)C(O)C(C)O3)C(O)C(C)O2)C(O)C(C)O1 (some centres not stated),0.112 µM,1.07 µM
COc1ccc(-c2cc(-c3cccc(NS(C)(=O)=O)c3)nc(N)c2C#N)cc1,1.35 µM,6.64 µM
COc1cc(C2CC(=O)Nc3c2ccc2ccccc32)cc(Br)c1OC (configuration not stated),0.285 µM,0.969 µM
COc1c(Cl)ccc2c(-c3nc4cc(Cl)c(F)cc4s3)cc(=O)oc12,4.89 µM,34.4 µM
COc1cc(F)c(/C=C/c2cc(/C=C/c3cc(OC)c(OC)cc3F)n(-c3cc(F)cc(F)c3)n2)cc1OC,2.39 µM,5.72 µM
CC(C)C[C@H](NC(=O)[C@@H](NC(=O)c1cccc(-c2ccccc2)n1)[C@@H](C)O)B(O)O,0.00244 µM,0.00685 µM
Clc1ccc(CNc2nccc(-c3cnn4ncccc34)n2)cc1,5.62 µM,12.7 µM
Cc1cc(N(CCCNc2ccnc3cc(Cl)ccc23)Cc2ccc3c(c2)OCO3)nc(N2CCCCC2)n1,1.95 µM,4.67 µM
CSc1ccc(SC2c3ccc(C)cc3Oc3nc(N)c(C#N)c(N)c32)cc1 (configuration not stated),1.74 µM,3.81 µM
Cc1ccc(Nc2cc(C)nc(NCCCNc3ccnc4cc(Cl)ccc34)n2)cc1,1.43 µM,2.92 µM
Nc1nccc2c1ncn2C1OC(CO)C(O)C1O (configuration not stated),> 100 µM,> 100 µM
O=C(N/N=C/c1ccc(Cl)cc1Cl)c1ccc2nc(-c3ccc(Cl)cc3)[nH]c2c1,1.64 µM,3.23 µM
Cc1cc(C)c(S(=O)(=O)N(CCc2cccc(Br)c2)Cc2ccc(-c3cccc(S(C)(=O)=O)c3)cc2)c(C)c1,> 100 µM,> 100 µM
CC(C)C[C@H](NC(=O)CCn1ccc2ncccc2c1=O)B(O)O,2.35 µM,14.4 µM
COc1cc(NC(=O)NCc2ccco2)ccc1-c1ccc(NC(=O)NCc2ccco2)cc1OC,1.82 µM,4.61 µM
Cn1cnc2c(F)c(Nc3ccc(Br)cc3F)c(C(=O)NOCCO)cc21,26.9 µM,> 83.4 µM
COC(=O)[C@]12CC[C@@H](C)[C@H](C)[C@@H]1C1=CC[C@@H]3[C@@]4(C)C(C=O)=C[C@@](C)(COS(C)(=O)=O)C4[C@H](O)C[C@@]3(C)[C@]1(C)CC2 (some centres not stated),2.08 µM,4.1 µM

Compound,GI50,TGI
CCNNC(=O)[C@@H]1[C@H](c2cc(OC)c(OC)c(OC)c2)c2cc3c(cc2[C@H](O)[C@H]1CO)OCO3,0.281 µM,
CCOC(=O)C(=CN1CCNC1=S)C(=O)OCC,> 100 µM,> 100 µM
C[C@@H](COCCC(=O)N1CCN(c2ncc(C(F)(F)F)cn2)CC1)Nc1cn[nH]c(=O)c1C(F)(F)F,17.9 µM,> 100 µM
CN1C[C@@H]2Cn3c(c(C4=C(c5cn(C)c6ccccc56)C(=O)NC4=O)c4ccccc43)C[C@H]2C1,4.04 µM and 3.06 µM,9.12 µM and 6.64 µM
COc1cccc(CCC(=O)c2cc3c(N)c(C(=O)Nc4cccc(Cl)c4C)sc3nc2C)c1,0.288 µM,2.82 µM
CCCCCCCCCCCCCCCCCCOc1ccccc1CC(=O)NCC[N+](C)(C)C,2.47 µM,6.28 µM
COc1cccc(C2SC(C)C(=O)N2CCc2cccs2)c1 (configuration not stated),2.25 µM,7.32 µM
NC(=O)c1ccccc1NC(=O)c1ccccc1Cl,> 100 µM,> 100 µM
O=C(COc1cccc(/C=C2\Oc3ccc4ccccc4c3C2=O)c1)c1ccc(Cl)cc1,9.62 µM,43.3 µM
CCN(CC)CCn1c2ccc(OC)cc2c2sc3cc(OC)ccc3c(=O)c21,1.56 µM,3.21 µM
COc1ccc(-c2ccc(-c3ccc(C(=N)N)cn3)o2)cc1Cl,1.84 µM,3.51 µM
Nc1ccc(C(OC(=O)c2cc3ccccc3c(Cc3c(O)c(C(=O)OC(c4ccc(N)cc4)(c4ccc(N)cc4)c4ccc(N)cc4)cc4ccccc34)c2O)(c2ccc(N)cc2)c2ccc(N)cc2)cc1,0.252 µM,2.13 µM
CCOc1nccc2c1nc(-c1nonc1N)n2CC,> 25 µM,> 25 µM
COc1ccc(Cn2cc3c(c2-c2cc(OC)c(OC)c(OC)c2)CCc2cnoc2-3)cc1N,0.0251 µM,0.0735 µM
N#C/C(=C\c1c(-c2ccccc2)[nH]c2ccccc12)C(=O)c1ccccc1,5.56 µM,> 100 µM
CC(=O)Nc1ccc(NC(=O)Nc2cccc(-c3nc(-c4ccc(NC(=O)c5cccnc5)cc4Cl)no3)c2)cc1C(F)(F)F,0.234 µM,0.758 µM
Cc1ncc(C(=O)Nc2ccc(CN3CCN(C)CC3)c(C(F)(F)F)c2)cc1C#Cc1c(N)ncc2ccccc12,0.577 µM,1.15 µM
